In patent US10457687B2, “Aminoacid derivatives, a process for their preparation and pharmaceutical compositions containing them” (LES LABORATOIRES SERVIER, priority 2015, dated 2019):

Molecular target: Mcl-1 protein (Homo sapiens, UniProt Q07820)
Test: Inhibition of Mcl-1 by the fluorescence polarisation technique (Method 1 or Method 2)
Type: binding
Conditions: for percentage fluorescence polarisation inhibition, Mcl-1 FP: partial inhibitors; for IC50: fluorescence polarisation, Fluorescein labelled ligand, Method 1 (not underlined) or Method 2 (underlined), read-out: IC50 (μM) Mcl-1 FP
Experimental: The relative binding potency of each compound was determined via Fluorescence Polarisation (FP).
An 11 point serial dilution of each compound was prepared in DMSO and 2 μl transferred into flat bottomed, low binding, 384-well plate (final DMSO concentration 5%). 38 μl of buffer (10 mM 4-(2-hydroxyethyl)-1-piperazineethanesulfonic acid [HEPES], 150 mM NaCl, 0.05% Tween 20, pH 7.4), containing the Fluorescein labelled ligand (final concentration 1 nM) and Mcl-1 protein (final concentration 5 nM) was then added.
An 11 point serial dilution of each compound was prepared in DMSO and 2 μl transferred into flat bottomed, low binding, 384-well plate (final DMSO concentration 5%). 38 μl of buffer (20 mM Na2HPO4, 1 mM EDTA, 50 mM NaCl, pH 7.4), containing the Fluorescein labelled ligand (final concentration 10 nM) and Mcl-1 protein (final concentration 10 nM) was then added.

Sequence of Mcl-1 protein (Q07820 whole entry): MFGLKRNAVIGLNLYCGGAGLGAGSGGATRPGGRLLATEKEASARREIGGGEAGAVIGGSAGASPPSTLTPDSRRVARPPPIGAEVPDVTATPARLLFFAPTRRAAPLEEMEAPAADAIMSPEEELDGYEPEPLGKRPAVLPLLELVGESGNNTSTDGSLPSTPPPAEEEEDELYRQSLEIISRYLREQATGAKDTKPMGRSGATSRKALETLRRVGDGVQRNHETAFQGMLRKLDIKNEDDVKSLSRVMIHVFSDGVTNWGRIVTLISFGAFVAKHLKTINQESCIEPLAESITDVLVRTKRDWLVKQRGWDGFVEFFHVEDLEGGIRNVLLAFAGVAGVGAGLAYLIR

| IC50 [µM] | SMILES | other results |
| --- | --- | --- |
|  | CCc1sc2ncnc(NC(Cc3ccccn3)C(=O)O)c2c1-c1cccc(Cl)c1C [Example 151, N-[(5Ra)-5-(3-chloro-2-methylphenyl)-6-ethylthieno[2,3-d]pyrimidin-4-yl]-3-pyridin-2-yl-D-alanine] | percentage fluorescence polarisation inhibition, Mcl-1 FP (@ 66.7 μM test compound): 71.3% @ 66.7 μM |
| 0.495 | CCc1sc2ncnc(NC(Cc3c(F)cccc3F)C(=O)O)c2c1-c1cccc(Cl)c1C [Example 131, N-[(5Sa)-5-(3-chloro-2-methylphenyl)-6-ethylthieno[2,3-d]pyrimidin-4-yl]-2,6-difluoro-D-phenylalanine] |  |
| 0.136 | O=C(O)[C@@H](Cc1ccccc1)Nc1ncnc2sc(C(F)F)c(-c3cccc4ccccc34)c12 (single isomer, unassigned) [Example 207, N-[6-(difluoromethyl)-5-(naphthalen-1-yl)thieno[2,3-d]pyrimidin-4-yl]-D-phenylalanine] |  |
| 3.24 | CCc1sc2ncnc(NC(Cc3ccccc3)C(=O)O)c2c1-c1cccc2c1c(Cl)cn2CCN(C)C [Example 230, N-((5Sa)-5-{3-chloro-1l-[2-(dimethylamino)ethyl]-1H-indol-4-yl}-6-ethyl-thieno[2,3-d]pyrimidin-4-yl)-D-phenylalanine] |  |
| 8.84 | CC(O)c1sc2ncnc(N[C@H](Cc3ccccc3)C(=O)O)c2c1-c1cccc2ccccc12 (single isomer, unassigned) [Example 206, N-[6-(1-hydroxyethyl)-5-(naphthalen-1-yl)thieno[2,3-d]pyrimidin-4-yl]-D-phenylalanine] |  |
| 0.429 | CCc1sc2ncnc(N[C@H](Cc3ccccc3)C(=O)O)c2c1-c1cccc2ccccc12 [Example 79, N-[6-ethyl-5-(naphthalen-1-yl)thieno[2,3-d]pyrimidin-4-yl]-D-phenylalanine] |  |
| 2.87 | CCc1sc2ncnc(N[C@H](Cc3ccccc3)C(=O)O)c2c1-c1cccc2[nH]ncc12 [Example 98, N-[6-ethyl-5-(1H-indazol-4-yl)thieno[2,3-d]pyrimidin-4-yl]-D-phenylalanine] |  |
|  | O=C(O)[C@@H](Cc1ccccc1)Nc1ncnc2sc(CO)c(-c3cccc4ccccc34)c12 [Example 197, N-[6-(hydroxymethyl)-(5Ra)-5-(naphthalen-1-yl)thieno[2,3-d]pyrimidin-4-yl]-D-phenylalanine] | percentage fluorescence polarisation inhibition, Mcl-1 FP (@ 200 μM test compound): 54.1% @ 200 μM |
| 0.227 | CCc1sc2ncnc(N[C@H](CC3CCCCC3)C(=O)O)c2c1-c1cccc2ccccc12 [Example 164, 3-cyclohexyl-N-[6-ethyl-5-(naphthalen-1-yl)thieno[2,3-d]pyrimidin-4-yl]-D-alanine] |  |
|  | CC(C)(O)c1sc2ncnc(NC(Cc3ccccc3)C(=O)O)c2c1-c1cccc2ccccc12 [Example 209, N-[6-(2-hydroxypropan-2-yl)-(5Ra)-5-(naphthalen-1-yl)thieno[2,3-d]pyrimidin-4-yl]-D-phenylalanine] | percentage fluorescence polarisation inhibition, Mcl-1 FP (@ 200 μM test compound): 56.85% @ 200 μM |
| 20.2 | CCc1sc2ncnc(NC(Cc3ccccc3)C(=O)O)c2c1-c1cncc2ccccc12 [Example 81, N-[6-ethyl-(5Sa)-5-(isoquinolin-4-yl)thieno[2,3-d]pyrimidin-4-yl]-D-phenylalanine] |  |
| 2.53 | CCc1sc2ncnc(NC(Cc3c[nH]c4ccccc34)C(=O)O)c2c1-c1cccc2ccccc12 [Example 185, N-[6-ethyl-(5Sa)-5-(naphthalen-1-yl)thieno[2,3-d]pyrimidin-4-yl]-D-tryptophan] |  |
| 0.958 | CCc1sc2ncnc(NC(Cc3ccccc3)C(=O)O)c2c1-c1cccc2c1c(Cl)cn2CCCN1CCN(C)CC1 [Example 240, N-((5Sa)-5-{3-chloro-1-[3-(4-methylpiperazin-1-yl)propyl]-1H-indol-4-yl}-6-ethyl-thieno[2,3-d]pyrimidin-4-yl)-D-phenylalanine] |  |
| 36.8 | CCc1sc2ncnc(NC(Cc3ccccn3)C(=O)O)c2c1-c1cccc2c1c(Cl)cn2CCN1CCN(C)CC1 [Example 249, N-((5Ra)-5-{3-chloro-1-[2-(4-methylpiperazin-1-yl)ethyl]-1H-indol-4-yl}-6-ethyl-thieno[2,3-d]pyrimidin-4-yl)-3-pyridin-2-yl-D-alanine] |  |
| 0.597 | CCc1sc2ncnc(NC(Cc3cccnc3)C(=O)O)c2c1-c1cccc2ccccc12 [Example 162, N-[6-ethyl-(5Sa)-5-(naphthalen-1-yl)thieno[2,3-d]pyrimidin-4-yl]-3-pyridin-3-yl-D-alanine] |  |
| 0.073 | CCc1sc2ncnc(NC(Cc3ccccc3)C(=O)O)c2c1-c1cccc(Br)c1C [Example 97, N-[(5Sa)-5-(3-bromo-2-methylphenyl)-6-ethylthieno[2,3-d]pyrimidin-4-yl]-D-phenylalanine] |  |
|  | CCc1sc2ncnc(N[C@H](Cc3ccccc3C(F)(F)F)C(=O)O)c2c1-c1cccc(Cl)c1C [Example 137, N-[(5Ra)-5-(3-chloro-2-methylphenyl)-6-ethylthieno[2,3-d]pyrimidin-4-yl]-2-(trifluoromethyl)-D-phenylalanine] | percentage fluorescence polarisation inhibition, Mcl-1 FP (@ 50 μM test compound): 71.05% @ 50 μM |
| 0.335 | CCc1sc2ncnc(NC(Cc3ccccc3OCC(=O)N(C)C)C(=O)O)c2c1-c1cccc(Cl)c1C [Example 142, N-[(5Sa)-5-(3-chloro-2-methylphenyl)-6-ethylthieno[2,3-d]pyrimidin-4-yl]-2-[2-(dimethylamino)-2-oxoethoxy]-D-phenylalanine] |  |
| 0.046 | C/C=C\c1sc2ncnc(N[C@H](Cc3ccccc3)C(=O)O)c2c1-c1cccc2ccccc12 [Example 104, N-[(5Sa)-5-(naphthalen-1-yl)-6-((1Z)-prop-1-en-1-yl)thieno[2,3-d]pyrimidin-4-yl]-D-phenylalanine] |  |
| 14.2 | CCc1sc2ncnc(N[C@H](Cc3cn(Cc4ccccc4)cn3)C(=O)O)c2c1-c1cccc2ccccc12 [Example 195, 1-benzyl-N-[6-ethyl-5-(naphthalen-1-yl)thieno[2,3-d]pyrimidin-4-yl]-D-histidine] |  |
| 0.541 | CCc1sc2ncnc(NC(Cc3ccccc3)C(=O)O)c2c1-c1cc(Cl)c(OCCN2CCN(C)CC2)c(Cl)c1C [Example 54, N-((5Sa)-5-{3,5-dichloro-2-methyl-4-[2-(4-methylpiperazin-1-yl)ethoxy]phenyl}-6-ethylthieno[2,3-d]pyrimidin-4-yl)-D-phenylalanine] |  |
| 0.632 | O=C(O)[C@@H](Cc1ccccc1)Nc1ncnc2sc(C(F)F)c(-c3cccc4ccccc34)c12 (single isomer, unassigned) [Example 208, N-[6-(difluoromethyl)-5-(naphthalen-1-yl)thieno[2,3-d]pyrimidin-4-yl]-D-phenylalanine] |  |
| 0.913 | CCc1sc2ncnc(NC(Cc3ccccc3C#N)C(=O)O)c2c1-c1cccc(Cl)c1C [Example 127, N-[(5Sa)-5-(3-chloro-2-methylphenyl)-6-ethylthieno[2,3-d]pyrimidin-4-yl]-2-cyano-D-phenylalanine] |  |
| 0.127 | CCc1sc2ncnc(NC(Cc3ccccc3)C(=O)O)c2c1-c1ccc(OCCN(C)C)c(Cl)c1C [Example 59, N-((5Sa)-5-{3-chloro-4-[2-(dimethylamino)ethoxy]-2-methylphenyl}-6-ethylthieno[2,3-d]pyrimidin-4-yl)-L-phenylalanine] |  |
| 0.064 | CCc1sc2ncnc(NC(CC3CCCCC3)C(=O)O)c2c1-c1cccc2ccccc12 [Example 166, 3-cyclohexyl-N-[6-ethyl-(5Sa)-5-(naphthalen-1-yl)thieno[2,3-d]pyrimidin-4-yl]-D-alanine] |  |
